# Laboratory results from article PMC10254444, “Targeting Myeloperoxidase Activity and Neutrophil ROS Production to Modulate Redox Process: Effect of Ellagic Acid and Analogues” (Molecules, 2023).
# How the values were obtained:
# [1] = ABTS radical cation assay
# Method: The ABTS assay was based on the method described by Re et al.. For the generation of ABTS^•+ radicals, sodium persulfate (2.45 mM) aqueous solution was mixed with ABTS (7 mM) and incubated overnight in the dark to obtain a dark-colored solution. Stock solution of ABTS^•+ was then diluted by adding pure methanol (100%) to obtain an absorbance of 0.70 (±0.02) at 734 nm at 30 °C. To obtain more repetition, the ABTS assay was performed using a microplate reader (ThermoLabsystem, Finland). An aliquot of 2 µL of the tested compound (EA or analogue) was added to 198 µL of ABTS^•+, and the decrease in absorbance was monitored at 740 nm after 30 min [32]. During this reaction, the blue-green ABTS radical cation is converted back into its colorless neutral form in the presence of the potential antioxidant molecule. A control consisted of 2 µL of DMSO in 198 µL of ABTS^•+ solution. The reducing capacity was determined according to the formula:% inhibition = (Acontrol − ASample) × 100/AControl(1)
# [2] = biological target: T1, human myeloperoxidase (MPO) (Homo sapiens, UniProt P05164); experiment: MPO peroxidase activity, classical assay (Amplex Red); format: biochemical
# T1 construct: purchased Calbiochem Millipore
# T1 sequence (P05164 49-745): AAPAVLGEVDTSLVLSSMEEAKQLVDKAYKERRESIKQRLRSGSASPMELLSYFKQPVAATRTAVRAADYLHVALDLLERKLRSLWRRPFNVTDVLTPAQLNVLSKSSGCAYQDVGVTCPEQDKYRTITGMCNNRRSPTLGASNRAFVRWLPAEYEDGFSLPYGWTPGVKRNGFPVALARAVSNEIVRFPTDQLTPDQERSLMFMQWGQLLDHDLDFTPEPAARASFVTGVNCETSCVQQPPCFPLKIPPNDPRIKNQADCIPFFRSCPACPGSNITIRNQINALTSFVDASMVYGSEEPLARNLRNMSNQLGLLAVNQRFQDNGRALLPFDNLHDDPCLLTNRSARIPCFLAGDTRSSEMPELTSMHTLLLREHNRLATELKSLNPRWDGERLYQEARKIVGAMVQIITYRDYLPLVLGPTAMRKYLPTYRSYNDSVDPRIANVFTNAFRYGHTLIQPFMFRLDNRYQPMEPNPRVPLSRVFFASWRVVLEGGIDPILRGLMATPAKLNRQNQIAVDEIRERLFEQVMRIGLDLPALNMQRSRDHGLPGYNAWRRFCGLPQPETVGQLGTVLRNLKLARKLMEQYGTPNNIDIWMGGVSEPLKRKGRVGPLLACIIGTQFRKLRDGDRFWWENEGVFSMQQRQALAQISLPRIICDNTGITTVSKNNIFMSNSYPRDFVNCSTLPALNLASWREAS
# Method: Measurement of the peroxidase activity of MPO was performed by a classical enzymatic assay and by SIEFED assay as described by Nyssen et al.. The MPO solution was prepared with purified human MPO in dilution buffer (PBS 20 mM at pH 7.4 with 5 g/L BSA and 0.1% Tween-20). The solutions of EA or analogue, at final concentrations ranging from 10^−8 M to 10^−5 M, were incubated for 10 min with human MPO at a final concentration of 5 mU/mL before further use. The revelation of MPO activity was performed by monitoring the enzyme-catalyzed oxidation of Amplex Red in the presence of H2O2 (10 μM) and nitrite (4.5 mM) in phosphate buffer at pH 7.4.
# After incubation, mixtures containing 100 μL of EA/analogue or vehicle (DMSO) and MPO were loaded into wells of microtiter plates (transparent), and the peroxidase activity was measured by adding 10 μL sodium nitrite solution (4.5 mM, final concentration) and 100 μL of the reactional solution containing 10 µM H2O2 and 40 µM Amplex® Red (AR) in phosphate buffer (50 mM) at pH 7.4. The oxidation of AR into the fluorescent resorufin adduct (λexcitation = 544 nm; λemission = 590 nm) was monitored for 30 min at 37 °C with a fluorescent plate reader (Fluoroskan Ascent, Fisher Scientific, Hampton, NH, USA). To eliminate the possibility of the artifact reactions that might arise from MPO activity or its natural substrate (H2O2), the direct reaction of ellagic acid or an analogue with H2O2 was performed in phosphate buffer (PBS) without the addition of human MPO.
# [3] = system: PMA-activated neutrophils; experiment: ROS production by PMA-activated neutrophils (L012 chemiluminescence); format: cell-based, equine
# Method: Equine neutrophils were isolated from whole blood using EDTA disodium salt (1.6 mg/mL) as an anticoagulant. The blood was drawn from the jugular vein of healthy horses bred and fed under identical conditions without medical treatment. All the experiments were realized with the approval of the ethics committee of the Faculty of Veterinary Medicine of the University of Liege (agreement number 1474). Briefly, the neutrophils were isolated at room temperature (18–22 °C) by centrifugation (400× g; 45 min; 20 °C) on a discontinuous Percoll density gradient according to the method previously described. The cells were gently collected and washed with two volumes of physiological saline solution. After the supernatant removal, the cell pellets were re-suspended in 2 mL PBS and counted for further use.
# The ROS produced by PMA-activated neutrophils were measured by L012-enhanced chemiluminescence (CL) under an adaptation of the method previously described by Benbarek et al. and Derochette et al.. Neutrophil suspensions were distributed in the wells (neutrophils/well, 143 μL PBS) of a 96-well microtiter plate (White Combiplate 8, Fisher Scientific) and incubated for 10 min at 37 °C with 2 μL of EA or analogue to reach final concentrations of 10^−8 M, 10^−7 M, 10^−6 M, and 10^−5 M. After incubation, 25 μL CaCl2 (10 mM) and 20 μL L-012 (10^−4 M) were added into the wells (final volume of 200 μL). […] A control was performed with neutrophils activated with PMA (positive Ctrl) in the presence of PBS instead of ellagic acid analogue. Another control was performed with PMA-activated neutrophils in the presence of the vehicle solution of ellagic acid or analogue (1% DMSO) (DMSO, final concentration) and was taken as 100% CL response. The negative control was performed with unstimulated neutrophils (NA) with the CL probe alone. The inhibition percentage was calculated using a similar formula (Equation (1)) as described above.
IC50 [1],Compound,ABTS activity (in words) [1],"MPO inhibition, classical assay (in words) [2]",Inhibition of neutrophil ROS production (in words) [3],Inhibition of neutrophil ROS production ([3]; highest concentration)
,"CN(C)C(=O)Oc1cc2c(=O)oc3c(OC(=O)N(C)C)c(OC(=O)N(C)C)cc4c(=O)oc(c1OC(=O)N(C)C)c2c34 [compound 6, Sevellagic acid]",no significant activity,lack of effect,less active than all the other tested compounds,58%
6.56 ± 0.37 µM,"CCOC1Oc2cc(C(=O)OC)cc(O)c2O1 (stereo not drawn) [compound 11, methyl 2-ethoxy-7-hydroxybenzo[d][1,3]dioxole-5-carboxylate]",,,good inhibitory effect,
